# From patent publication US8288371B2, “Ortho pyrrolidine, benzyl-substituted heterocycle CCR1 antagonists for autoimmune diseases and inflammation” (Pharmacopeia, LLC, priority 2007, dated 2012)
# Target: T1, human CCR1 (Homo sapiens, UniProt P32246)
# T1 sequence (P32246 1-355): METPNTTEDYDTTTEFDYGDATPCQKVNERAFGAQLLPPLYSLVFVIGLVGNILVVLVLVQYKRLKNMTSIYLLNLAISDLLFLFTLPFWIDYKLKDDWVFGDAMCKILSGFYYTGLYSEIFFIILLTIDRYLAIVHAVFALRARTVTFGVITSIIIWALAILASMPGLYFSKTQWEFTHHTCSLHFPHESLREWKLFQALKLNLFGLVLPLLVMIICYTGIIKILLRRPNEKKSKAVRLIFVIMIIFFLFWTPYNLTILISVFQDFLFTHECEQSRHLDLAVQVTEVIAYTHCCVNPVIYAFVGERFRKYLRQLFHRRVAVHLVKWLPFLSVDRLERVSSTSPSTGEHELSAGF
# Experiment: CCR1 binding protocol (SPA, [125I]-MIP-1α displacement)
# Details: cell membrane expressing human CCR1, 0.1 nM [125I]-MIP-1α, 4 hours at ambient temperature; read-out: Relative potency (IC50)
# Summary of the method: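 Displacement of 0.1 nM [125I]-MIP-1α (final) from membranes expressing human CCR1 was measured by scintillation proximity after 4 h at ambient temperature. Conditions: pH 7.4 Tris buffer with 0.1% BSA and MnCl, and 0.5 μg membrane per well. Compounds were tested as a 10-step ½-log series from a 10 mM DMSO stock to derive IC50.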
row,SMILES,IC50 [nM]
1,Cc1cc(NC(=O)N2CCC[C@@H]2c2nccn2Cc2ccc(Cl)cc2)c(C(F)(F)F)o1 [Compound 45],500 to 5000
2,Cc1cc(C(F)(F)F)cc(C)c1NC(=O)N1CCC[C@@H]1c1nccn1Cc1ccc(Cl)cc1 [Compound 30],< 50
3,Cc1nnc([C@H]2CCCN2C(=O)C(C)c2cc(C(F)(F)F)ccc2Cl)n1Cc1ccc(Cl)cc1 (stereo partly drawn) [Compound 533],50 to 500
4,Cc1nnc([C@H]2CCCN2C(=O)CC2CCOc3cc(C(F)(F)F)ccc32)n1Cc1ccc(Cl)cc1 (stereo partly drawn) [Compound 515],< 50
5,Cc1nnc([C@H]2CCCN2C(=O)NC2(c3ccccc3)CC2)n1Cc1ccc(Cl)cc1 [Compound 204],< 50
6,Cc1nnc([C@H]2CCCN2C(=O)C[C@H](C)c2ccccc2)n1Cc1ccc(Cl)cc1 [Compound 479],50 to 500
7,Cc1nnc([C@H]2CCCN2C(=O)N[C@H]2CCCc3ccccc32)n1Cc1ccc(Cl)cc1 [Compound 172],50 to 500
8,CC[C@@H](NC(=O)N1C[C@H](OC(C)=O)C[C@@H]1c1nnc(C)n1Cc1ccc(Cl)cc1)c1ccc(C)o1 [Compound 503],500 to 5000
9,Cc1nc(C(F)(F)F)nc(C)c1NC(=O)N1CCC[C@@H]1c1nnc(C)n1Cc1ccc(Cl)cc1 [Compound 466],< 50
10,Cc1nc(C(F)(F)F)ccc1NC(=O)N1CC=C[C@@H]1c1nnc(C)n1Cc1ccc(Cl)cc1 [Compound 636],< 50
11,CNC(=O)c1ccc(C)c(NC(=O)N2CCC[C@@H]2c2nnc(C)n2Cc2ccc(Cl)cc2)c1 [Compound 216],< 50
12,Cc1cc(C)c(C(N)=O)cc1NC(=O)N1CCC[C@@H]1c1nnc(C)n1Cc1ccc(Cl)cc1 [Compound 363],50 to 500
13,CCC(CC)NC(=O)N1CCC[C@@H]1c1nnc(C)n1Cc1ccc(Cl)cc1 [Compound 183],50 to 500
14,Cc1nnc([C@H]2C[C@@H](O)CN2C(=O)Cc2cccc(C(F)(F)F)c2)n1Cc1ccc(Cl)cc1 [Compound 502],50 to 500
15,COC(=O)c1cc(C)cc(C)c1NC(=O)N1CCC[C@@H]1c1nnc(C)n1Cc1ccc(Cl)cc1 [Compound 211],< 50
16,Cc1nc(C(F)(F)F)ccc1CC(=O)N1C[C@@H](O)C[C@@H]1c1nnc(C)n1Cc1ccc(Cl)cc1 [Compound 619],< 50
17,COc1ccc(-c2noc(C)c2NC(=O)N2CCC[C@@H]2c2nnc(C)n2Cc2ccc(Cl)cc2)cc1 [Compound 303],< 50
18,Cc1nnc([C@H]2CCCN2C(=O)Nc2ccc(F)cc2F)n1Cc1ccc(Cl)cc1 [Compound 422],50 to 500
19,O=C(Nc1ccc(Cl)cc1F)N1CCC[C@@H]1c1nnnn1Cc1ccc(Cl)cc1 [Compound 54],50 to 500
20,CC[C@H](NC(=O)N1CCC[C@@H]1c1nnc(C)n1Cc1ccc(Cl)cc1)c1cc2ccccc2o1 [Compound 117],< 50
21,Cc1cccc(C(=O)O)c1NC(=O)N1CCC[C@@H]1c1nnc(C)n1Cc1ccc(Cl)cc1 [Compound 251],500 to 5000
22,CC[C@H](NC(=O)N1CCC[C@@H]1c1nnc(C)n1Cc1ccc(Cl)cc1)c1ccc(C(F)(F)F)cc1 [Compound 125],< 50
23,CC[C@H](NC(=O)N1CCC[C@@H]1c1nnc(C)n1Cc1ccc(Br)cc1)c1ccc(C(F)(F)F)nc1 [Compound 561],< 50
24,Cc1nnc([C@H]2CCCN2C(=O)Nc2nnc(C(F)(F)F)s2)n1Cc1ccc(Cl)cc1 [Compound 464],500 to 5000
25,Cc1onc(-c2ccc(F)cc2)c1NC(=O)N1CCC[C@@H]1c1nnc(C)n1Cc1ccc(Cl)cc1 [Compound 297],< 50
26,Cc1cc(C(=O)N(C)C)ccc1NC(=O)N1CCC[C@@H]1c1nnc(C)n1Cc1ccc(Cl)cc1 [Compound 236],50 to 500
27,O=C(Nc1ccc(Cl)cc1F)N1CCC[C@@H]1c1nncn1Cc1ccc(Cl)cc1 [Compound 556],< 50
28,CC(C)(NC(=O)N1CCC[C@@H]1c1ncncc1Cc1ccc(Cl)cc1)c1ccccc1 [Compound 28],500 to 5000
29,O=C(NC1CCCOc2ccccc21)N1CCC[C@@H]1c1nccn1Cc1ccc(Cl)cc1 (stereo partly drawn) [Compound 32],< 50
30,Cc1nnc([C@H]2CCCN2C(=O)NCC2CCN(S(C)(=O)=O)CC2)n1Cc1ccc(Cl)cc1 [Compound 600],50 to 500
